Tests used:
A549 = assay: Antiproliferative assay (resazurin, 72 h); assay type: cell-based, human
Method: (§1) Colon adenocarcinoma (HT-29) and T-cell leukemia (Jurkat) cells were grown in RPMI-1640 medium (Gibco, Milano, Italy). Promyelocytic leukemia cells (HL-60), non-small cell lung carcinoma (A549), cervix carcinoma (HeLa) and breast adenocarcinoma (MDA-MB-231) cells were grown in DMEM medium (Gibco, Milano, Italy). Both media were supplemented with 115 units/mL of penicillin G (Gibco, Milano, Italy), 115 μg/mL of streptomycin (Invitrogen, Milano, Italy) and 10% fetal bovine serum (Invitrogen, Milano, Italy). All the cell lines used were purchased from the American Type Culture Collection (ATCC, Manassas, VA, USA). Stock solutions (10 mM) of the compounds were obtained by dissolving them in DMSO.
(§2) The cells were seeded in 96-well plates at the appropriate density for each cell line. After 24 h, the cells were treated by performing serial 5-fold dilutions of the tested compounds starting from a concentration of 10 μM. All experimental conditions were tested in triplicate for statistical analysis. The plates were incubated for 72 h at 37 °C in a humidified 5% CO2 atmosphere. At the end of the incubation period, 10 μL of 100 μg/mL resazurin solution was added to each well; then, the plate was re-incubated for 3–4 h. The fluorescence of the wells in each plate was monitored using a Spark 10 M spectrophotometer (Tecan Group Ltd., Mannedorf, Switzerland) with a 535 nm excitation wavelength and a 600 nm emission wavelength.

HT-29 = assay: Antiproliferative assay (resazurin, 72 h); assay type: cell-based, human; conditions: mean ± SE, 72 h
Method: as §1, §2

HeLa = assay: Antiproliferative assay (resazurin, 72 h); assay type: cell-based, human
Method: as §1, §2

Jurkat = assay: Antiproliferative assay (resazurin, 72 h); assay type: cell-based, human; conditions: mean ± SE, 72 h
Method: as §1, §2

MDA-MB-231 = assay: Antiproliferative assay (resazurin, 72 h); assay type: cell-based, human; conditions: for IC50: mean ± SE, 72 h
Method: as §1, §2

[1] = Homo sapiens, A549, Table 1, mean ± SE
[2] = Homo sapiens, HeLa, Table 1, mean ± SE
[3] = Homo sapiens, MDA-MB-231, Table 1

SMILES | IC50 (A549; [1]) [nM] | IC50 (HT-29; Homo sapiens, HT-29, Table 1) [nM] | IC50 (HeLa; [2]) [nM] | IC50 (Jurkat; Homo sapiens, Jurkat, Table 1) [nM] | IC50 (MDA-MB-231; [3]) [nM] | melting point [°C] | IC50 (A549; Table 2, mean ± SE) [nM] | IC50 (HT-29; Table 2) [nM] | IC50 (HeLa; Table 2, mean ± SE) [nM] | IC50 (Jurkat; Table 2) [nM] | IC50 (MDA-MB-231; Table 2) [nM] | fold more active than 7i (MDA-MB-231; MDA-MB-231 cells) [fold]
COc1cc(Nc2cc(C)nc3nc(NCCc4ccc(F)cc4)nn23)cc(OC)c1OC [Compound 7aa, N^2-(4-Fluorophenethyl)-5-methyl-N^7-(3,4,5-trimethoxyphenyl)-[1,2,4]triazolo [1,5-a]pyrimidine-2,7-diamine] | > 10000 | 2830 ± 220 | 2500 ± 270 | 9610 ± 890 | > 10000 | 150 to 152 |  |  |  |  |  | 
COc1cc(Nc2cc(C)nc3nc(NCCc4ccc(Cl)cc4)nn23)cc(OC)c1OC [Compound 7ab, N^2-(4-Chlorophenethyl)-5-methyl-N^7-(3,4,5-trimethoxyphenyl)-[1,2,4]triazolo [1,5-a]pyrimidine-2,7-diamine] | > 10000 | > 10000 | 5810 ± 480 | 5940 ± 500 | > 10000 | 196 to 198 |  |  |  |  |  | 
COc1ccc(CCNc2nc3nc(C)cc(Nc4cc(OC)c(OC)c(OC)c4)n3n2)cc1 [Compound 7ac, N^2-(4-Methoxyphenethyl)-5-methyl-N^7-(3,4,5-trimethoxyphenyl)-[1,2,4]triazolo [1,5-a]pyrimidine-2,7-diamine] | 8880 ± 880 | 6880 ± 490 | 5050 ± 630 | 9590 ± 1170 | 1650 ± 190 | 214 to 216 |  |  |  |  |  | 
COc1cc(Nc2cc(C)nc3nc(Nc4ccc(F)cc4)nn23)cc(OC)c1OC [Compound 7e, N2-(4-Fluorophenyl)-5-methyl-N7-(3,4,5-trimethoxyphenyl)-[1,2,4]triazolo [1,5-a]pyrimidine-2,7-diamine] | 1020 ± 80 | 690 ± 60 | 390 ± 20 | 820 ± 1 | 710 ± 70 | 247 |  |  |  |  |  | 
COc1ccc(Nc2nc3nc(C)cc(Nc4cc(OC)c(OC)c(OC)c4)n3n2)cc1 [Compound 7h, N2-(4-Methoxyphenyl)-5-methyl-N7-(3,4,5-trimethoxyphenyl)-[1,2,4]triazolo [1,5-a]pyrimidine-2,7-diamine] | 3760 ± 140 | 920 ± 90 | 520 ± 30 | 1010 ± 130 | 1170 ± 130 | 215 |  |  |  |  |  | 
COc1ccc(CNc2nc3nc(C)cc(Nc4cc(OC)c(OC)c(OC)c4)n3n2)cc1OC [Compound 7v, N^2-(3,4-Dimethoxybenzyl)-5-methyl-N^7-(3,4,5-trimethoxyphenyl)-[1,2,4]triazolo [1,5-a]pyrimidine-2,7-diamine] | 1000 ± 90 | > 10000 | 560 ± 70 | 1220 ± 90 | 1220 ± 150 | 194 to 196 |  |  |  |  |  | 
Cc1cc(Nc2cccc(Cl)c2)n2nc(NCCCc3ccccc3)nc2n1 [Compound 8t] |  |  |  |  |  |  | 260 ± 70 | 380 ± 30 | 153 ± 10 | 140 ± 70 | 1320 ± 870 | 

Second part, led by results:

IC50 (A549; [1]) [nM] | IC50 (HT-29; Homo sapiens, HT-29, Table 1) [nM] | IC50 (HeLa; [2]) [nM] | IC50 (Jurkat; Homo sapiens, Jurkat, Table 1) [nM] | IC50 (MDA-MB-231; [3]) [nM] | melting point [°C] | IC50 (A549; Table 2, mean ± SE) [nM] | IC50 (HT-29; Table 2) [nM] | IC50 (HeLa; Table 2, mean ± SE) [nM] | IC50 (Jurkat; Table 2) [nM] | IC50 (MDA-MB-231; Table 2) [nM] | SMILES | fold more active than 7i (MDA-MB-231; MDA-MB-231 cells) [fold]
2300 ± 120 | 820 ± 70 | 520 ± 60 | 590 ± 10 | 1430 ± 140 | 241 |  |  |  |  |  | COc1cc(Nc2cc(C)nc3nc(Nc4ccccc4)nn23)cc(OC)c1OC [Compound 7d, 5-Methyl-N2-phenyl-N7-(3,4,5-trimethoxyphenyl)-[1,2,4]triazolo [1,5-a]pyrimidine-2,7-diamine] | 
1550 ± 190 | 940 ± 110 | 500 ± 40 | 850 ± 20 | 1510 ± 140 | 234 |  |  |  |  |  | COc1cc(Nc2cc(C)nc3nc(Nc4ccc(C)cc4)nn23)cc(OC)c1OC [Compound 7g, 5-Methyl-N2-(p-tolyl)-N7-(3,4,5-trimethoxyphenyl)-[1,2,4]triazolo [1,5-a]pyrimidine-2,7-diamine] | 
3750 ± 260 | 3530 ± 140 | 3200 ± 240 | 4400 ± 380 | 2710 ± 310 | 173 to 175 |  |  |  |  |  | COc1cc(Nc2cc(C)nc3nc(NCc4ccccc4)nn23)cc(OC)c1OC [Compound 7i, N^2-Benzyl-5-methyl-N^7-(3,4,5-trimethoxyphenyl)-[1,2,4]triazolo [1,5-a]pyrimidine-2,7-diamine] | 
> 10000 | 2530 ± 250 | 3010 ± 300 | 9640 ± 800 | 59 ± 10 | 184 to 186 |  |  |  |  |  | COc1cc(Nc2cc(C)nc3nc(NCc4ccncc4)nn23)cc(OC)c1OC [Compound 7j, 5-Methyl-N^2-(pyridin-4-ylmethyl)-N^7-(3,4,5-trimethoxyphenyl)-[1,2,4]triazolo [1,5-a]pyrimidine-2,7-diamine] | 46
5280 ± 650 | 3570 ± 480 | 2980 ± 320 | 6850 ± 630 | 560 ± 67 | 178 to 180 |  |  |  |  |  | COc1cc(Nc2cc(C)nc3nc(NCc4cccnc4)nn23)cc(OC)c1OC [Compound 7k, 5-Methyl-N^2-(pyridin-3-ylmethyl)-N^7-(3,4,5-trimethoxyphenyl)-[1,2,4]triazolo [1,5-a]pyrimidine-2,7-diamine] | 
2180 ± 310 | 1530 ± 160 | 930 ± 20 | 5550 ± 480 | 77 ± 10 | 176 to 178 |  |  |  |  |  | COc1cc(Nc2cc(C)nc3nc(NCc4cccc(F)c4)nn23)cc(OC)c1OC [Compound 7m, N^2-(3-Fluorobenzyl)-5-methyl-N^7-(3,4,5-trimethoxyphenyl)-[1,2,4]triazolo [1,5-a]pyrimidine-2,7-diamine] | 
3880 ± 280 | 3460 ± 370 | 1610 ± 130 | 7020 ± 620 | 1680 ± 180 | 162 to 164 |  |  |  |  |  | COc1cc(Nc2cc(C)nc3nc(NCc4cccc(C)c4)nn23)cc(OC)c1OC [Compound 7q, 5-Methyl-N^2-(3-methylbenzyl)-N^7-(3,4,5-trimethoxyphenyl)-[1,2,4]triazolo [1,5-a]pyrimidine-2,7-diamine] | 
1920 ± 90 | > 10000 | > 10000 | 4440 ± 470 | 2990 ± 180 | 182 to 184 |  |  |  |  |  | COc1cc(Nc2cc(C)nc3nc(NCc4ccccc4C)nn23)cc(OC)c1OC [Compound 7r, 5-Methyl-N^2-(2-methylbenzyl)-N^7-(3,4,5-trimethoxyphenyl)-[1,2,4]triazolo [1,5-a]pyrimidine-2,7-diamine] | 
1650 ± 140 | 1040 ± 80 | 880 ± 90 | 1650 ± 110 | 1780 ± 150 | 150 to 152 |  |  |  |  |  | COc1cccc(CNc2nc3nc(C)cc(Nc4cc(OC)c(OC)c(OC)c4)n3n2)c1 [Compound 7t, N^2-(3-Methoxybenzyl)-5-methyl-N^7-(3,4,5-trimethoxyphenyl)-[1,2,4]triazolo [1,5-a]pyrimidine-2,7-diamine] | 
> 10000 | > 10000 | > 10000 | > 10000 | 4400 ± 260 | 208 to 210 |  |  |  |  |  | COc1ccccc1CNc1nc2nc(C)cc(Nc3cc(OC)c(OC)c(OC)c3)n2n1 [Compound 7u, N^2-(2-Methoxybenzyl)-5-methyl-N^7-(3,4,5-trimethoxyphenyl)-[1,2,4]triazolo [1,5-a]pyrimidine-2,7-diamine] | 
> 10000 | > 10000 | 9010 ± 210 | > 10000 | 1550 ± 110 | 178 to 180 |  |  |  |  |  | COc1cc(Nc2cc(C)nc3nc(NCc4ccc(C#N)cc4)nn23)cc(OC)c1OC [Compound 7x, 4-(((5-Methyl-7-((3,4,5-trimethoxyphenyl)amino)-[1,2,4]triazolo [1,5-a]pyrimidin-2-yl)amino)methyl)benzonitrile] | 

— publication PMC9230136 (Pharmaceutics, 2022)
